Test results: ChEMBL document CHEMBL1142332, “N-(3-(phenylcarbamoyl)arylpyrimidine)-5-carboxamides as potent and selective inhibitors of Lck: structure, synthesis and SAR” (Bioorg Med Chem Lett, 2008)

Legend:
[1] = target: Tyrosine-protein kinase Lck (Homo sapiens, UniProt P06239); assay: Inhibition of Lck by HTRF assay
Angiopoietin-1 receptor = Angiopoietin-1 receptor (Homo sapiens, UniProt Q02763); assay: Inhibition of Tie2
[2] = target: T1, Tyrosine-protein kinase JAK3 (Homo sapiens, UniProt P52333); assay: Inhibition of Jak3
T1 sequence (P52333 whole entry): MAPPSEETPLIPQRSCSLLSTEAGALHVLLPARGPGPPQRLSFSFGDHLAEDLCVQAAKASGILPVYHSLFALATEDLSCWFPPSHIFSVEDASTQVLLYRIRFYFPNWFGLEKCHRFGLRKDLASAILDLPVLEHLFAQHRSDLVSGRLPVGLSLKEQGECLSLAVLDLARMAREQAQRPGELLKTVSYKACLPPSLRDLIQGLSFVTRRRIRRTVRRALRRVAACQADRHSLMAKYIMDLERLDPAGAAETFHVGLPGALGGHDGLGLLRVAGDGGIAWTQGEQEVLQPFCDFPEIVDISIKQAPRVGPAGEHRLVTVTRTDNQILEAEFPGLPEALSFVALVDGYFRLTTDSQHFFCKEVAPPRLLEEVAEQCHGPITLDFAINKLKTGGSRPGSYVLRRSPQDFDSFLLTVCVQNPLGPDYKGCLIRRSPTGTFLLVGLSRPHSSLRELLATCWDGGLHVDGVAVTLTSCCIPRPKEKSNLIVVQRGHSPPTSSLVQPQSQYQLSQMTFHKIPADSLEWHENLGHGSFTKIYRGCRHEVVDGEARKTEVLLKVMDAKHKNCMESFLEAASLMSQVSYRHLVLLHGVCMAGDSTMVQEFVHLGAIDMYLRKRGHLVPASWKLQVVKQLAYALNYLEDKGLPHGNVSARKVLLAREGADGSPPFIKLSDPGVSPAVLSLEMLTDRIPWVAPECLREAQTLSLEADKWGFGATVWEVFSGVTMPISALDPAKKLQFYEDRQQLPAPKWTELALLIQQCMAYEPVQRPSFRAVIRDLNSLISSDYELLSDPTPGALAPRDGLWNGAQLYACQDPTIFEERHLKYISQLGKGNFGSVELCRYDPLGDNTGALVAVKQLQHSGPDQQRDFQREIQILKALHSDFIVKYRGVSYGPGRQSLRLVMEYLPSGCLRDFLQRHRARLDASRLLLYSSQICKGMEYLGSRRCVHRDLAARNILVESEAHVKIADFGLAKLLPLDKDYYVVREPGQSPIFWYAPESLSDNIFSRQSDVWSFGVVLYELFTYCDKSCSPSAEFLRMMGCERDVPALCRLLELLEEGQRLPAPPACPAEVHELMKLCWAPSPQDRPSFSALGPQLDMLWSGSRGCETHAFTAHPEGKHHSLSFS

[3] = target: Mitogen-activated protein kinase 14 (Homo sapiens, UniProt Q16539); assay: Inhibition of p38alpha
Sequence of Mitogen-activated protein kinase 14 (Q16539 whole entry): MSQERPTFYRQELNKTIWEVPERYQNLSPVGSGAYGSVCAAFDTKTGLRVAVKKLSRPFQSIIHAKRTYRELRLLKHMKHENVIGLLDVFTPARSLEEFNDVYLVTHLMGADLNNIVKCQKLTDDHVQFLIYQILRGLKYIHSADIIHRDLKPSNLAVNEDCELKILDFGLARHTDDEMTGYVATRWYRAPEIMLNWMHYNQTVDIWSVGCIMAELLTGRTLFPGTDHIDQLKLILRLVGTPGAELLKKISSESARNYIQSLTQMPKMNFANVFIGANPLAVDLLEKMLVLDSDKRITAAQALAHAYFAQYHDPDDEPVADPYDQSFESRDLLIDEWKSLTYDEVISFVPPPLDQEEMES

[4] = target: Vascular endothelial growth factor receptor 2 (Homo sapiens, UniProt P35968); assay: Inhibition of KDR
Sequence of Vascular endothelial growth factor receptor 2 (P35968 whole entry): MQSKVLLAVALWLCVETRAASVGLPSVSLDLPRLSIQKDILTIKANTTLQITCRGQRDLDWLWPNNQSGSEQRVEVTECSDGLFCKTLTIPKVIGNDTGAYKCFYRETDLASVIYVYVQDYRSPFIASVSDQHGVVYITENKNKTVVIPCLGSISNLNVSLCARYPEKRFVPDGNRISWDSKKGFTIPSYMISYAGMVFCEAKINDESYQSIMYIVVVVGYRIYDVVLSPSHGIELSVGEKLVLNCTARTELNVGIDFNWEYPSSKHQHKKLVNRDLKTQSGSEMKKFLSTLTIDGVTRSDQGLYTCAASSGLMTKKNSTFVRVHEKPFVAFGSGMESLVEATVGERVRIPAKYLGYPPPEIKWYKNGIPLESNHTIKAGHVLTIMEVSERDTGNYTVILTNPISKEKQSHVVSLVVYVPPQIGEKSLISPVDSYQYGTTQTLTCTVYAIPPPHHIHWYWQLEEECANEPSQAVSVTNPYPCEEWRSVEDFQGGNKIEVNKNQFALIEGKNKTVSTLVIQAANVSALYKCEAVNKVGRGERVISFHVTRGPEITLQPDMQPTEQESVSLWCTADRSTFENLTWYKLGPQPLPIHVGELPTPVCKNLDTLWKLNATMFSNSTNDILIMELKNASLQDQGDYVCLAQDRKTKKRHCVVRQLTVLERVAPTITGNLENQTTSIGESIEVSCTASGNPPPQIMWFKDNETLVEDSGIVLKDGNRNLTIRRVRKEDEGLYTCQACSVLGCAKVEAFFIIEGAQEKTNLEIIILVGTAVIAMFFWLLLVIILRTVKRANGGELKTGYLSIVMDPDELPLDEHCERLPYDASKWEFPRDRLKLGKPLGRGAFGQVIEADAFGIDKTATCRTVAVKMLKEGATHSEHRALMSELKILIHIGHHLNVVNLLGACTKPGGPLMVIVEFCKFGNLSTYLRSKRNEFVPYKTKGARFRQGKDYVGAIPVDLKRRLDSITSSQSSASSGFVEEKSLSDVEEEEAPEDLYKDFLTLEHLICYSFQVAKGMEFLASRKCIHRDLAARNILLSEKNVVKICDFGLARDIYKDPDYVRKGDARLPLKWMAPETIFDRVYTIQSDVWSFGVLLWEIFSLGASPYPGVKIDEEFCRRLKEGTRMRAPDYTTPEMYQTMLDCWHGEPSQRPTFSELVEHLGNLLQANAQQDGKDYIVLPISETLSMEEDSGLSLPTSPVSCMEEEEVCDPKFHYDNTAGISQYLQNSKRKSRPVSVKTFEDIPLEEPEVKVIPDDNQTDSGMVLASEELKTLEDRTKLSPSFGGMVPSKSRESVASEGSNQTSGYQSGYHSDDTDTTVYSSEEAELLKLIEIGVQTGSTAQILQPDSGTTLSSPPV

T-cell = assay: Inhibition of T cell activation in human mixed lymphocyte reaction; assay type: functional, cell-based

Sequence of Angiopoietin-1 receptor (Q02763 whole entry): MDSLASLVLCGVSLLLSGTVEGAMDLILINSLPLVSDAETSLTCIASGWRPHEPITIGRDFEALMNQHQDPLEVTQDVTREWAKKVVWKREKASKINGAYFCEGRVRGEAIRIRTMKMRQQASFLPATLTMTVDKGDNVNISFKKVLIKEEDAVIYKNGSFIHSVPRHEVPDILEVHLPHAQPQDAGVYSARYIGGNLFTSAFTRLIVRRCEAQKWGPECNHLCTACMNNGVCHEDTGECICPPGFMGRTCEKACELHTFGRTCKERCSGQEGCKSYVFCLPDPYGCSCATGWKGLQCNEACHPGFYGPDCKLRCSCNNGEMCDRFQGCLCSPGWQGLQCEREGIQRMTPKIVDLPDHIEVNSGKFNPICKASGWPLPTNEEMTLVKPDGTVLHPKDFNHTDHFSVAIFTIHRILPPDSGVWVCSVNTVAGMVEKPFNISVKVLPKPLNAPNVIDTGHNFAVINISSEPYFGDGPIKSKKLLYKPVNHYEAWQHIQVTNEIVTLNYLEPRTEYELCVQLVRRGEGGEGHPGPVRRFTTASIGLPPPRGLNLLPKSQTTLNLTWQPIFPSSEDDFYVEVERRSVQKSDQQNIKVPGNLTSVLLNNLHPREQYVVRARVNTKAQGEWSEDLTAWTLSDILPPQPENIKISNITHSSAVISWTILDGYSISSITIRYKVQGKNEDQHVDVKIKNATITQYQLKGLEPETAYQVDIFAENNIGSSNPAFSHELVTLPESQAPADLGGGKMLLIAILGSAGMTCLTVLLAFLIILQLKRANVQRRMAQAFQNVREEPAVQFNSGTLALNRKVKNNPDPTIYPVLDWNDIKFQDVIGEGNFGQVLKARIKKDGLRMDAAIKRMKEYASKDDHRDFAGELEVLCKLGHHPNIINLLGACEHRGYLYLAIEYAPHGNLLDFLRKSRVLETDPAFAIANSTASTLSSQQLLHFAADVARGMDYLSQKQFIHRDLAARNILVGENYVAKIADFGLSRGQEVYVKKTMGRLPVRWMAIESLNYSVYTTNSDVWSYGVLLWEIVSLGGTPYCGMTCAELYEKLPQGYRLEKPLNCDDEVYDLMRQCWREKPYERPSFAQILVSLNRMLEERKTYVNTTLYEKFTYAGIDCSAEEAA
Sequence of Tyrosine-protein kinase Lck (P06239 whole entry): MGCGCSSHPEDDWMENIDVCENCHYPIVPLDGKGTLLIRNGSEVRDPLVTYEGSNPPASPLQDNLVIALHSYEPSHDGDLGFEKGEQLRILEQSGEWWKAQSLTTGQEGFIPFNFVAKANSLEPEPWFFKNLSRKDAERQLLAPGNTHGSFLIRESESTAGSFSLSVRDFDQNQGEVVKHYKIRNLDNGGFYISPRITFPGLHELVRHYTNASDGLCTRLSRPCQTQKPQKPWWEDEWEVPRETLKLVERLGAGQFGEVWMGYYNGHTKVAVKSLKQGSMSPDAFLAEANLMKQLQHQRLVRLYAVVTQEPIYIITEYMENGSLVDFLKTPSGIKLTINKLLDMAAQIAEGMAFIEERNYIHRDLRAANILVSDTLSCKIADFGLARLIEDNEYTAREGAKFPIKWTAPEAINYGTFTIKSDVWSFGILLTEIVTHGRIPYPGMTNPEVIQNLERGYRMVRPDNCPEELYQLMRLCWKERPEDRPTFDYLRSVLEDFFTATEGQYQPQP

SMILES | IC50 [1] [nM] | IC50 (Angiopoietin-1 receptor) [nM] | IC50 [2] [nM] | IC50 [3] [nM] | IC50 [4] [nM] | IC50 (T-cell) [nM]
CNc1ncc(C(=O)Nc2cc(C(=O)Nc3cccc(C(F)(F)F)c3C)ccc2C)c(OC)n1 | 44 | > 25000 | > 25000 | > 10000 | > 25000 | > 10000
Cc1ccc(C(=O)Nc2cccc(C(F)(F)F)c2)cc1-c1ccc2nc(N)ncc2c1 | – | 2 | – | – | – | –
COc1nc(NC2CCN(C)CC2)ncc1C(=O)Nc1cc(C(=O)Nc2cccc(C(F)(F)F)c2)ccc1C | 101 | > 25000 | > 25000 | – | > 25000 | –
CNc1ncc(C(=O)Nc2cc(C(=O)Nc3cccc(C(F)(F)F)c3)ccc2C)c(Oc2ccccc2)n1 | 25 | > 25000 | > 25000 | – | > 25000 | > 10000
COc1nc(Nc2ccc(N3CCN(C)CC3)cc2)ncc1C(=O)Nc1cc(C(=O)Nc2cccc(C(F)(F)F)c2F)ccc1C | 0.6 | 3440 | 334 | 856 | 255 | 107
Cc1ccc(C(=O)Nc2cccc(C(F)(F)F)c2)cc1NC(=O)c1cnc(NCCN2CCOCC2)nc1Oc1ccccc1 | 41 | > 25000 | > 25000 | – | > 25000 | > 10000
CNc1ncc(C(=O)Nc2cc(C(=O)Nc3cccc(C(F)(F)F)c3F)ccc2C)c(NC)n1 | 84 | > 25000 | > 25000 | 2.4 | 6680 | –
COc1nc(NCCCCN(C)C)ncc1C(=O)Nc1cc(C(=O)Nc2cccc(C(F)(F)F)c2C)ccc1C | 45 | > 25000 | > 25000 | – | > 25000 | –
CNc1ncc(C(=O)Nc2cc(C(=O)Nc3cccc(C(F)(F)F)c3)ccc2C)c(OC)n1 | 53 | > 25000 | > 25000 | 2720 | 8330 | > 10000
COc1nc(NCCN2CCOCC2)ncc1C(=O)Nc1cc(C(=O)Nc2cccc(C(F)(F)F)c2)ccc1C | 22 | > 25000 | > 25000 | – | 2030 | 4920
CNc1ncc(C(=O)Nc2cc(C(=O)Nc3cccc(C(F)(F)F)c3F)ccc2C)c(OC)n1 | 7 | > 25000 | > 25000 | 254 | > 25000 | > 10000
COc1nc(NCCCN2CCN(C)CC2)ncc1C(=O)Nc1cc(C(=O)Nc2cccc(C(F)(F)F)c2C)ccc1C | 19 | > 25000 | > 25000 | – | > 25000 | 2710
